For the experiment, the system named is PMA-induced release of endogenous TGFα from human PC3 prostate cancer cells. Description: ELISA-based TGFα release assay, PMA-induced, PC3 cells. The format is cell-based. To be noted: PC-3, Batimastat 10 μM, PMA 25 ng/ml, 2 hours. How it is done:
In the following study, ELISA-based TGFα release assays were performed to analyze the inhibitory effects of the antibodies of the invention on PMA-induced release of endogenous TGFα from human PC3 prostate cancer cells.
In brief, on day 1, Nunc black MaxiSorp® 96-well plates (Thermo Fisher Scientific, USA) were coated overnight with 100 μl per well of goat anti-human TGFα capture antibody (provided as part of the DuoSet ELISA kit) at 0.4 μg/ml TBS at 4° C. 80,000 PC3 (European Collection of Authenticated Cell Cultures, UK) cells in 100 μl of normal growth medium were seeded in each well of F-bottom 96-well cell culture plates (Corning, USA) and incubated at 37° C., 5% CO2 overnight. On day 2, the capture antibody solution was removed and MaxiSorp® plates were blocked with 300 μl per well of TBS, 1% BSA at room temperature for 1-2 hours. […] Using an infinite M1000 (Tecan Group, Switzerland) microplate reader, the fluorescence of each well was collected at an excitation wavelength of 435 nm and an emission wavelength of 555 nm.
A general note: ELISA stands for enzyme-linked immunosorbent assay.

The results in this text go back to patent US12404345B2, “Humanized antibodies against iRHOM2” (SCIRHOM GMBH, priority 2021, dated 2025).

The structures appear in SMILES notation.

On to `CNC(=O)[C@H](Cc1ccccc1)NC(=O)[C@H](CC(C)C)[C@H](CSc1cccs1)C(=O)NO` [Batimastat], for which at 10 µM the inhibition was 90.7%.

As a reminder, the inhibition is the change of the read-out against control, counted positive when it falls. Read a high inhibition as strong suppression.
